# Where “and” joins values, the source holds several entries; their conditions need not be identical. Equal entries are not always repeated.
# System: 935938-334-R-J1-PDC complex spheroid viability
# Experiment: Anticancer human tumor 935938-334-R-J1-PDC patient-derived small intestine adenocarcinoma cell line growth inhibition [POLQ]
# Details: for viability, T/C: stronger effect = lower value
# Method: Multicellular complex tumor spheroid response to Polymerase (POL) inhibitors (novobiocin, ART-558, RP6685) in combination with a variety of drugs and investigational agents in selected tumor cell lines
# The POL inhibitors (novobiocin, ART-558, and RP6685) were evaluated both individually and in combination with standard of care and investigational anticancer small molecules within a complex spheroid model of solid tumors. . Complex spheroids include a stromal component modeled by human endothelial cells (HUVEC) and fibroblasts modeled by human mesenchymal stem cells (MSCs). The concentration ranges selected for each drug and investigational agent were based upon clinically achievable concentrations if the clinical Cmax of the agent was known.
# Compounds. The drugs and investigational agents: novobiocin (NSC847541), ART-558 (NSC835418), RP-6685 (NSC848927), peposertib (NSC802822), ceralasertib (NSC780249), elimusertib (NSC800525), camonsertib (NSC841442), AZD-1390 (NSC803789), olaparib (NSC753686), talazoparib (NSC767125), rucaparib (NSC756644), sotorasib (NSC818433), MRTX-1133 (NSC836407), SN-38 (NSC673596), topotecan (NSC609699), epotoside (NSC141540), doxorubicin (NSC123127), gemcitabine (NSC613327), 5-fluorouracil (NSC19893), paclitaxel (NSC125973), vemurafenib (NSC761431), MSA-2 (NSC828583), SN-011 (NSC837082), adavosertib (NSC754352), prexasertib (NSC758257), carboplatin (NSC241240) and oxaliplatin (NSC266046), were obtained from the National Cancer Institute (NCI) Developmental Therapeutics Program Chemical Repository (21). The FDA-approved anticancer drug set is available from the Developmental Therapeutics Program at https://dtp.cancer.gov/organization/dscb/obtaining/. […] The stock solutions were prepared in dimethyl sulfoxide (DMSO, Sigma-Aldrich, St. Louis, MO, cat. D2650), except for the platinum compounds which were prepared in saline (Quality Biological, Gaithersburg, MD, cat. 114-055-101), at 800-fold the tested concentration and stored at -70 degrees C prior to their use. All drugs and investigational agents were tested over a range starting from a high concentration at or near the clinical Cmax and decreasing in half-log increments. If the clinical Cmax for an agent had not been determined, the highest concentration tested was 10 microM, except for SN-38, which was tested at a high concentration of 1 microM.
# Cell Culture. All cells were maintained in an incubator at 37 degrees C and 5% CO2 with 95% humidity. The PDC lines were cultured according to standard operating procedures established by the NCI PDMR (https://pdmr.cancer.gov). Table 3 of the manuscript, lists the cell lines along with the number of the three cell types plated to form the mct-spheroids and media for tumor cell growth. After thawing, all PDC lines, except 997537-175-T-J1-PDC and 415267-285-R-J2-PDC, were cultured in Matrigel-coated flasks prepared with a working solution of 1X Ham's F-12 nutrient mix, without supplementation (Thermo Fisher Scientific, cat. 11765054), 100 U/mL penicillin-streptomycin (Thermo Fisher Scientific, cat. 15140122), and 2.5% Matrigel (Corning Inc., Corning, NY, cat. 354248) for the first three passages. The two PDC lines 997537-175-T-J1-PDC and 415267-285-R-J2-PDC were cultured on uncoated flasks. The 857933-349-R-J2-PDC line was cultured in 6C/Colon 1B media containing advanced DMEM/F-12 (Thermo Fisher Scientific, cat. 12634028), 10 mM HEPES (Thermo Fisher Scientific, cat. 15630080), 1X GlutaMAX supplement (Thermo Fisher Scientific, cat. 35050061), 0.1 mg/mL primocin (InvivoGen, San Diego, CA, cat. ant-pm-2), 10% defined fetal bovine serum, heat inactivated (HyClone Laboratories Inc., Logan, UT, cat. SH30070.03HI), 50% L-WRN conditioned media (ATCC, cat. CRL-3276), 1.25 mM N-Acetyl-L-cysteine (Sigma-Aldrich, cat. A9165), 10 mM nicotinamide (Sigma-Aldrich, cat. N0636), 1X B-27 supplement (Thermo Fisher Scientific, cat. 17504044), 1X N-2 supplement (Thermo Fisher Scientific, cat. […]
# 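Also: spheroids exposed to drugs for seven days before viability read.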
# 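For viability, T/C in this document: 100% = DMSO vehicle control wells.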
structure (smiles),measurement,setting,value
CCCS(=O)(=O)Nc1ccc(F)c(C(=O)c2c[nH]c3ncc(-c4ccc(Cl)cc4)cc23)c1F,"viability, T/C",compound 0.0316 µM,113% and 92.8% and 116%
same,"viability, T/C",compound 0.1 µM,119% and 111% and 89.6%
same,"viability, T/C",compound 0.316 µM,115% and 103% and 106%
same,"viability, T/C",compound 1 µM,108% and 102% and 121%
same,"viability, T/C",compound 3.16 µM,96.3% and 131% and 129%
same,"viability, T/C",compound 10 µM,46.3% and 53.5% and 37.2%
same,IC50,curve of compound,9.27 µM and > 10 µM and 8.23 µM
CCCS(=O)(=O)Nc1ccc(F)c(C(=O)c2c[nH]c3ncc(-c4ccc(Cl)cc4)cc23)c1F + Nc1ccc(C#CCN(C(=O)Cc2ncc(C(F)(F)F)cc2C(F)(F)F)c2ccc(F)cc2)nn1,IC50,"curve of first compound, second compound 0.0316 µM",9.23 µM
same,IC50,"curve of first compound, second compound 0.1 µM",9.61 µM
same,IC50,"curve of first compound, second compound 0.316 µM",> 10 µM
same,IC50,"curve of first compound, second compound 1 µM",> 10 µM
same,IC50,"curve of first compound, second compound 3.16 µM",9.37 µM
same,IC50,"curve of first compound, second compound 10 µM",9.98 µM
same,"viability, T/C","second compound 0.0316 µM, first compound 0.0316 µM",114%
same,"viability, T/C","second compound 0.0316 µM, first compound 0.1 µM",112%
same,"viability, T/C","second compound 0.0316 µM, first compound 0.316 µM",117%
same,"viability, T/C","second compound 0.0316 µM, first compound 1 µM",135%
same,"viability, T/C","second compound 0.0316 µM, first compound 3.16 µM",113%
same,"viability, T/C","second compound 0.0316 µM, first compound 10 µM",45%
same,"viability, T/C","second compound 0.1 µM, first compound 0.0316 µM",126%
same,"viability, T/C","second compound 0.1 µM, first compound 0.1 µM",138%
same,"viability, T/C","second compound 0.1 µM, first compound 0.316 µM",109%
same,"viability, T/C","second compound 0.1 µM, first compound 1 µM",140%
same,"viability, T/C","second compound 0.1 µM, first compound 3.16 µM",131%
same,"viability, T/C","second compound 0.1 µM, first compound 10 µM",47.3%
same,"viability, T/C","second compound 0.316 µM, first compound 0.0316 µM",118%
same,"viability, T/C","second compound 0.316 µM, first compound 0.1 µM",121%
same,"viability, T/C","second compound 0.316 µM, first compound 0.316 µM",90.9%
same,"viability, T/C","second compound 0.316 µM, first compound 1 µM",165%
same,"viability, T/C","second compound 0.316 µM, first compound 3.16 µM",120%
same,"viability, T/C","second compound 0.316 µM, first compound 10 µM",50.3%
same,"viability, T/C","second compound 1 µM, first compound 0.0316 µM",103%
same,"viability, T/C","second compound 1 µM, first compound 0.1 µM",97.4%
same,"viability, T/C","second compound 1 µM, first compound 0.316 µM",95.1%
same,"viability, T/C","second compound 1 µM, first compound 1 µM",112%
same,"viability, T/C","second compound 1 µM, first compound 3.16 µM",129%
same,"viability, T/C","second compound 1 µM, first compound 10 µM",63.2%
same,"viability, T/C","second compound 3.16 µM, first compound 0.0316 µM",110%
same,"viability, T/C","second compound 3.16 µM, first compound 0.1 µM",121%
same,"viability, T/C","second compound 3.16 µM, first compound 0.316 µM",140%
same,"viability, T/C","second compound 3.16 µM, first compound 1 µM",158%
same,"viability, T/C","second compound 3.16 µM, first compound 3.16 µM",121%
same,"viability, T/C","second compound 3.16 µM, first compound 10 µM",45.6%
same,"viability, T/C","second compound 10 µM, first compound 0.0316 µM",104%
same,"viability, T/C","second compound 10 µM, first compound 0.1 µM",125%
same,"viability, T/C","second compound 10 µM, first compound 0.316 µM",145%
same,"viability, T/C","second compound 10 µM, first compound 1 µM",174%
same,"viability, T/C","second compound 10 µM, first compound 3.16 µM",151%
same,"viability, T/C","second compound 10 µM, first compound 10 µM",50%
COc1cc(C2c3cc4c(cc3C(OC3OC5COC(C)OC5C(O)C3O)C3COC(=O)C23)OCO4)cc(OC)c1O (stereo unspecified),"viability, T/C",compound 0.0316 µM,108% and 93.2% and 99.1%
same,"viability, T/C",compound 0.1 µM,103% and 85.7% and 106%
same,"viability, T/C",compound 0.316 µM,61.8% and 90.5% and 72.3%
same,"viability, T/C",compound 1 µM,49.7% and 44.2% and 35.8%
same,"viability, T/C",compound 3.16 µM,28.1% and 26.1% and 27.6%
same,"viability, T/C",compound 10 µM,31.2% and 30.3% and 30.4%
same,IC50,curve of compound,0.707 µM and 0.864 µM and 0.621 µM
